Patent publication US20090149531A1, “CHEMICAL COMPOSITION DERIVED FROM P-HYDROXYPHENYL PROPIONIC ACID FOR THE TREATMENT OF PSORIASIS” (APOTEKNOS PARA LA PIEL, S.L., priority 2007, published 2009)
Several values for one entry are separate records, joined by “and”; a condition that tells them apart may be missing. Identical values can stand only once.

How the values were obtained:
[1] = Permeability study, pig ear skin in Franz cell; assay type: in vitro ADME; details: hydroalcoholic solution 63.6 μg/ml or 6.36 μg/ml
Method: Skin from pig ears was used as the experimental system to which a hydroalcoholic solution of compound A 6.36×10^−2 mg/ml and 6.36×10^−3 mg/ml was applied, the reference product being a control hydroalcoholic solution (without compound A). For this study 4 different hydroalcoholic solutions were prepared. The first included 6.36 μg/ml of compound A, the second included 63.6 μg/ml, and the third and fourth were control solutions without compound A. All the preparations were tested on the pig ear skin experimental system. Samples were taken in the diffuser compartment at 6 different times (0, 1, 2, 6, 12 and 24 hours). All the samples (recipients) were quantified by HPLC. FIG. 1. Concentration of compound A in the recipient of the Franz cell for a sample with a concentration of 63.6 μg/ml of A. FIG. 2. Concentration of compound A in the recipient of the Franz cell for a sample with a concentration of 6.36 μg/ml of A.

[2] = tested on: Salmonella typhimurium TA98; experiment: Ames test without external metabolisation, TA98; assay type: cell-based; details: no metabolic activation; for Colonies per plate: individual plates 1-4, A; for Colonies per plate / Colonies per plate, Mean: 48 hours; for Mutagenic Ind,: relative to H+/B+
Method: (§1) The mutagenic activity of compound A was evaluated using the Ames test without external metabolisation. The Ames test is based on the use of bacterial strains to detect mutations in the DNA in vitro using bacterial strains that make it possible to detect types of damage to the genome.
(§2) Bacteria of 4 strains of Salmonella typhimurium that are internationally recommended for this test, TA1535, TA1537, TA98 and TA100, were used. The test was carried out according to highly standardised protocols. […] The test was carried out without external metabolic activation. The plates were incubated at 37° C. and the reverting colonies were counted after 48 hours.

[3] = tested on: Salmonella typhimurium TA1535; experiment: Ames test without external metabolisation, TA1535; assay type: cell-based; details: no metabolic activation; for Colonies per plate: individual plates 1-4, A; for Colonies per plate / Colonies per plate, Mean: 48 hours; for Mutagenic Ind,: relative to H+/B+
Method: as §1, §2

[4] = tested on: Salmonella typhimurium TA1537; experiment: Ames test without external metabolisation, TA1537; assay type: cell-based; details: no metabolic activation; for Colonies per plate: individual plates 1-4; for Colonies per plate / Colonies per plate, Mean: 48 hours; for Mutagenic Ind,: relative to H+/B+
Method: as §1, §2

[5] = tested on: cell hyperproliferation in hairless rats; experiment: Model of desquamation in hairless rats: corneous material extracted; assay type: in vivo; details: for amount of corneous material extracted, total sum of the right and left flanks, Portal No, 1 / amount of corneous material extracted, total sum of the right and left flanks, Portal No, 2 / amount of corneous material extracted, total sum of the right and left flanks, Portal No, 3 / amount of corneous material extracted, total sum of the right and left flanks, Portal No, 4 / amount of corneous material extracted, total sum of the right and left flanks, Portal No, 5 / amount of corneous material extracted, total sum of the right and left flanks, Portal No, 6: day 11
Method: The activity of compound A on cell hyperproliferation in hairless rats was evaluated using the model of desquamation in hairless rats described in the publication: Bräutigam, M., Hübner, H., Rach, P., Thieroff-Ekerdi, R. “Effects of Calcipotriol (MC 903) and Calcitriol after Topical Application on the Skin of Hairless Rats”, Skin Pharmacol 1992; 5:87-92.
(§3) To do this Calcitriol was used as the reference product at 0.01% and compound A was used as the test product at 1% and 0.1% (100 μg/cm^2 and 10 μg/cm^2, respectively). A Control Group was included, administered only with the vehicle (absolute ethanol).
The animals were randomly distributed into the following experimental groups:
(§4) The treatments were administered topically, once a day for 10 days (100 μg/side/animal). The animals were weighed on a daily basis throughout the study and the grade of erythema was evaluated (0=Absence of erythema, 1=Low grade erythema, 3=High grade erythema). On the last day of the study, day 11, the amount of corneous material extracted from the epidermis of the animals was evaluated.

[6] = Assessment of erythema in the hairless rat study; assay type: in vivo, hairless rats; details: 0=absence, 1=low grade, 3=high grade
Method: as §3, §4

[7] = Body weight in the hairless rat study; assay type: in vivo, hairless rats
Method: as §3, §4

[8] = Compound A 0.1% (10 μg/cm^2) topical once a day for 10 days
[9] = Compound A 1% (100 μg/cm^2) topical once a day for 10 days
[10] = Compound A 0.1% topical once a day, Baseline
[11] = Compound A 0.1% topical once a day, Day 2
[12] = Compound A 0.1% topical once a day, Day 3
[13] = Compound A 0.1% topical once a day, Day 4
[14] = Compound A 0.1% topical once a day, Day 5
[15] = Compound A 0.1% topical once a day, Day 6
[16] = Compound A 0.1% topical once a day, Day 7
[17] = Compound A 0.1% topical once a day, Day 8
[18] = Compound A 0.1% topical once a day, Day 9
[19] = Compound A 0.1% topical once a day, Day 10
[20] = Compound A 0.1% topical once a day, Day 11
[21] = Compound A 1% topical once a day, Baseline
[22] = Compound A 1% topical once a day, Day 2
[23] = Compound A 1% topical once a day, Day 3
[24] = Compound A 1% topical once a day, Day 4
[25] = Compound A 1% topical once a day, Day 5
[26] = Compound A 1% topical once a day, Day 6
[27] = Compound A 1% topical once a day, Day 7
[28] = Compound A 1% topical once a day, Day 8
[29] = Compound A 1% topical once a day, Day 9
[30] = Compound A 1% topical once a day, Day 10
[31] = Compound A 1% topical once a day, Day 11

In the case of C=C1C(=O)O[C@H](CCc2ccc(OC)cc2)[C@@H]1C [Compound A], the “amount of compound A dissolved in the recipient” value ([1]; samples at 0-24 hours, HPLC quantification limit) is reported as under 0.01 mg/mL, the “transdermal flow through the skin of the pig ear” value ([1]; up to 24 hours) is reported as “no transdermal flow” and the Colonies per plate ([2]; Comp. A 10 μg/ml) is reported as 9 and 6 and 12 and 14. For the same molecule, the “Colonies per plate, Mean” value ([2]; Comp. A 10 μg/ml) was 10.25, the “Mutagenic Ind,” value ([2]; Comp. A 10 μg/ml) was 1.079 and the Colonies per plate ([2]; Comp. A 100 μg/ml) was 15 and 12 (2×) and 8. For the same molecule, the “Colonies per plate, Mean” value ([2]; Comp. A 100 μg/ml) was 11.75, the “Mutagenic Ind,” value ([2]; Comp. A 100 μg/ml) was 1.237 and the Colonies per plate ([2]; Comp. A 1 mg/ml) was 8 and 4 and 6 and 17. The “Colonies per plate, Mean” value ([2]; Comp. A 1 mg/ml) was 8.75, the “Mutagenic Ind,” value ([2]; Comp. A 1 mg/ml) was 0.9211 and the “Ames test result (mutagenic effects)” value ([2]; TA98, concentrations evaluated 10 μg/ml to 1 mg/ml) was “negative”. For the same molecule, the Colonies per plate ([3]; Comp. A 10 μg/ml) was 1 (2×) and 2 and 0, the “Colonies per plate, Mean” value ([3]; Comp. A 10 μg/ml) was 1 and the “Mutagenic Ind,” value ([3]; Comp. A 10 μg/ml) was 0.5. For the same molecule, the Colonies per plate ([3]; Comp. A 100 μg/ml) was 1 (2×) and 2 and 0, the “Colonies per plate, Mean” value ([3]; Comp. A 100 μg/ml) was 1 and the “Mutagenic Ind,” value ([3]; Comp. A 100 μg/ml) was 0.5. For the same molecule, the Colonies per plate ([3]; Comp. A 1 mg/ml) was 1 (2×) and 0 and 2, the “Colonies per plate, Mean” value ([3]; Comp. A 1 mg/ml) was 1 and the “Mutagenic Ind,” value ([3]; Comp. A 1 mg/ml) was 0.5. The “Ames test result (mutagenic effects)” value ([3]; TA1535, concentrations evaluated 10 μg/ml to 1 mg/ml) was “negative”, the Colonies per plate ([4]; Comp. A 10 μg/ml, A) was 0 (3×) and 1 and the “Colonies per plate, Mean” value ([4]; Comp. A 10 μg/ml) was 0.25. For the same molecule, the “Mutagenic Ind,” value ([4]; Comp. A 10 μg/ml) was 0.5, the Colonies per plate ([4]; Comp. A 100 μg/ml, A) was 0 (2×) and 1 and 2 and the “Colonies per plate, Mean” value ([4]; Comp. A 100 μg/ml) was 0.75. For the same molecule, the “Mutagenic Ind,” value ([4]; Comp. A 100 μg/ml) was 1.5, the Colonies per plate ([4]; Comp. A 1 mg/ml) was 0 and the “Colonies per plate, Mean” value ([4]; Comp. A 1 mg/ml) was 0. The “Mutagenic Ind,” value ([4]; Comp. A 1 mg/ml) was 0, the “Ames test result (mutagenic effects)” value ([4]; TA1537, concentrations evaluated 10 μg/ml to 1 mg/ml) was “negative” and the “amount of corneous material extracted, total sum of the right and left flanks, Portal No, 1” value [5, 8] was 3.1 ± 0.17 mg. For the same molecule, the “amount of corneous material extracted, total sum of the right and left flanks, Portal No, 2” value [5, 8] was 1.7 ± 0.08 mg, the “amount of corneous material extracted, total sum of the right and left flanks, Portal No, 3” value [5, 8] was 1.1 ± 0.14 mg and the “amount of corneous material extracted, total sum of the right and left flanks, Portal No, 4” value [5, 8] was 1.1 ± 0.22 mg. The “amount of corneous material extracted, total sum of the right and left flanks, Portal No, 5” value [5, 8] was 1.1 ± 0.28 mg, the “amount of corneous material extracted, total sum of the right and left flanks, Portal No, 6” value [5, 8] was 8.1 ± 0.47 mg and the “amount of corneous material extracted, total sum of the right and left flanks, Portal No, 1” value [5, 9] was 3.1 ± 0.75 mg. For the same molecule, the “amount of corneous material extracted, total sum of the right and left flanks, Portal No, 2” value [5, 9] was 2.7 ± 0.23 mg, the “amount of corneous material extracted, total sum of the right and left flanks, Portal No, 3” value [5, 9] was 2.0 ± 0.26 mg and the “amount of corneous material extracted, total sum of the right and left flanks, Portal No, 4” value [5, 9] was 1.4 ± 0.169 mg. The “amount of corneous material extracted, total sum of the right and left flanks, Portal No, 5” value [5, 9] was 1.4 ± 0.23 mg, the “amount of corneous material extracted, total sum of the right and left flanks, Portal No, 6” value [5, 9] was 12.6 ± 0.76 mg and the “effect on the animals' skin (corneous material extracted)” value ([5]; compound A at 0.1%, topical) was “no effect”. The “amount of corneous material extracted in relation to the control group and compound A at 0.1%” value ([5]; compound A at 1%, Student Newman Keuls, p<0.01) was “statistically significant differences”, the “Assessment of erythema (mean grade)” value [6, 10] was 0.0 ± 0.00 and the “Assessment of erythema (mean grade)” value [6, 11] was 0.0 ± 0.00. The “Assessment of erythema (mean grade)” value [6, 12] was 0.0 ± 0.00, the “Assessment of erythema (mean grade)” value [6, 13] was 0.0 ± 0.00 and the “Assessment of erythema (mean grade)” value [6, 14] was 0.0 ± 0.00. For the same molecule, the “Assessment of erythema (mean grade)” value [6, 15] was 0.0 ± 0.00, the “Assessment of erythema (mean grade)” value [6, 16] was 0.0 ± 0.00 and the “Assessment of erythema (mean grade)” value [6, 17] was 0.0 ± 0.00. The “Assessment of erythema (mean grade)” value [6, 18] was 0.0 ± 0.00, the “Assessment of erythema (mean grade)” value [6, 19] was 0.0 ± 0.00 and the “Assessment of erythema (mean grade)” value [6, 20] was 0.0 ± 0.00. The “Assessment of erythema (mean grade)” value [6, 21] was 0.0 ± 0.00, the “Assessment of erythema (mean grade)” value [6, 22] was 1.0 ± 0.00 and the “Assessment of erythema (mean grade)” value [6, 23] was 1.0 ± 0.00. The “Assessment of erythema (mean grade)” value [6, 24] was 1.2 ± 0.11, the “Assessment of erythema (mean grade)” value [6, 25] was 1.3 ± 0.17 and the “Assessment of erythema (mean grade)” value [6, 26] was 1.5 ± 0.22. For the same molecule, the “Assessment of erythema (mean grade)” value [6, 27] was 1.5 ± 0.22, the “Assessment of erythema (mean grade)” value [6, 28] was 1.2 ± 0.40 and the “Assessment of erythema (mean grade)” value [6, 29] was 0.9 ± 0.15. The “Assessment of erythema (mean grade)” value [6, 30] was 0.9 ± 0.15, the “Assessment of erythema (mean grade)” value [6, 31] was 1.2 ± 0.17 and the Body weight [7, 10] was 0.0 ± 0.00 g. It also gave a Body weight [7, 11] of 0.0 ± 0.00 g, a Body weight [7, 12] of 0.0 ± 0.00 g and a Body weight [7, 13] of 0.0 ± 0.00 g. The Body weight [7, 14] was 0.0 ± 0.00 g, the Body weight [7, 15] was 0.0 ± 0.00 g and the Body weight [7, 16] was 0.0 ± 0.00 g. For the same molecule, the Body weight [7, 17] was 0.0 ± 0.00 g, the Body weight [7, 18] was 0.0 ± 0.00 g and the Body weight [7, 19] was 0.0 ± 0.00 g. For the same molecule, the Body weight [7, 20] was 0.0 ± 0.00 g, the Body weight [7, 21] was 0.0 ± 0.00 g and the Body weight [7, 22] was 1.0 ± 0.00 g. It also gave a Body weight [7, 23] of 1.0 ± 0.00 g, a Body weight [7, 24] of 1.2 ± 0.11 g and a Body weight [7, 25] of 1.3 ± 0.17 g. The Body weight [7, 26] was 1.5 ± 0.22 g, the Body weight [7, 27] was 1.5 ± 0.22 g and the Body weight [7, 28] was 1.2 ± 0.40 g. It also gave a Body weight [7, 29] of 0.9 ± 0.15 g, a Body weight [7, 30] of 0.9 ± 0.15 g and a Body weight [7, 31] of 1.2 ± 0.17 g.
